The values below come from patent publication US20160046618A1, “Cyclopropyl Fused Thiazin-2-Amine Compounds as Beta-Secretase Inhibitors and Methods of Use” (AMGEN INC., priority 2014, published 2016).

Usually IC50 stands for the concentration that gives 50% inhibition.

Each structure is given as a SMILES string.

Test [1] addresses human recombinant BACE1 (Homo sapiens (Human), UniProt P56817). In words: In vitro enzymatic BACE1 FRET assay. Format: biochemical. The following applies: read-out: IC50 IP (μM) BACE1 enzyme. The gist of the method:
(§1)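 Tris addition raises the pH to neutral to stop the reaction before fluorescence is measured at 590 nm emission with 488 nm excitation.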

The target of test [2] is human recombinant BACE2 (Homo sapiens (Human), UniProt Q9Y5Z0). Nature of the test: In vitro enzymatic BACE2 FRET assay. Format: biochemical. The following applies: read-out: IC50 IP (μM) BACE2 enzyme. The gist of the method: as §1
Test [3] concerns Aβ40 in conditioned medium of cells stably expressing Amyloid Precursor Protein (APP). In words: In vitro BACE-1 cell-based assay (Aβ40 sandwich ELISA). The following applies: read-out: IC50 IP (μM) BACE1 cell. An outline of the steps: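 Read-out: time-resolved fluorescence (Streptavidin-Europium) of Aβ40 captured by pAb40 and detected with biotinylated 6E10 from supernatants of APP-stable cells. Cells were exposed to compound for 24 h, 10-point dose response, top dose 100 μM or 10 μM, 0.1% DMSO. IC50 fitted to percent of control.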
(In general: In an ELISA, binding on a coated surface is turned into a signal by an enzyme label.)

Test [4] concerns the target Recombinant Cat D (Homo sapiens (Human), UniProt P07339). In words: In vitro enzymatic Cathepsin D (Cat D) FRET assay. Format: biochemical. The following applies: read-out: IC50 IP (μM) CatD. The gist of the method: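 Assay pH is 3.5 (0.05 M citrate, 5 mM CHAPS, 10% DMSO final) with Cat D from CHO cells. A 20 nM quenched peptide substrate is cleaved over one hour; the reaction is ended with Tris and read by fluorescence (ex 500, em 580 nm).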

human recombinant BACE1, sequence (P56817 46-501): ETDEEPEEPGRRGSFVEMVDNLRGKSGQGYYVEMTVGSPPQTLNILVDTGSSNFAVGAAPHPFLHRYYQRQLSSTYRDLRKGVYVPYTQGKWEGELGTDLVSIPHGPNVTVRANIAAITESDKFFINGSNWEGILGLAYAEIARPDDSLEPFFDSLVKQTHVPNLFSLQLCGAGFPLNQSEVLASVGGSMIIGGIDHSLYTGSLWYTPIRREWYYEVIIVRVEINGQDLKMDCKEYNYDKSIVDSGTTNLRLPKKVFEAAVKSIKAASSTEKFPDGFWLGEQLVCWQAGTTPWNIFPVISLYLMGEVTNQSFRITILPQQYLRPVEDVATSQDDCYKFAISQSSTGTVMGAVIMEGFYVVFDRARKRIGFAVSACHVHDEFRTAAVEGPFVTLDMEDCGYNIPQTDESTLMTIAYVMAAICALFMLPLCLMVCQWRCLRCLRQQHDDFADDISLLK
Recombinant Cat D, sequence (P07339 65-412): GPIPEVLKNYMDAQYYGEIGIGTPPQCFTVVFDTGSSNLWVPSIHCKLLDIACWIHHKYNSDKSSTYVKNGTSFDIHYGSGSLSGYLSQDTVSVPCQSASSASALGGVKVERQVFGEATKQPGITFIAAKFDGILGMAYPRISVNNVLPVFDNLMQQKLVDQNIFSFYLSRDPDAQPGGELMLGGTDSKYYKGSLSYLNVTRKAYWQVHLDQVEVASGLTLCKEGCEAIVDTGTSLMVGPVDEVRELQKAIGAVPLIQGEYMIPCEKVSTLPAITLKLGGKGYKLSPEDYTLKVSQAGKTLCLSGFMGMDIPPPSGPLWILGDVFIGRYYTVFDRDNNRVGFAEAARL
human recombinant BACE2, sequence (Q9Y5Z0 63-518): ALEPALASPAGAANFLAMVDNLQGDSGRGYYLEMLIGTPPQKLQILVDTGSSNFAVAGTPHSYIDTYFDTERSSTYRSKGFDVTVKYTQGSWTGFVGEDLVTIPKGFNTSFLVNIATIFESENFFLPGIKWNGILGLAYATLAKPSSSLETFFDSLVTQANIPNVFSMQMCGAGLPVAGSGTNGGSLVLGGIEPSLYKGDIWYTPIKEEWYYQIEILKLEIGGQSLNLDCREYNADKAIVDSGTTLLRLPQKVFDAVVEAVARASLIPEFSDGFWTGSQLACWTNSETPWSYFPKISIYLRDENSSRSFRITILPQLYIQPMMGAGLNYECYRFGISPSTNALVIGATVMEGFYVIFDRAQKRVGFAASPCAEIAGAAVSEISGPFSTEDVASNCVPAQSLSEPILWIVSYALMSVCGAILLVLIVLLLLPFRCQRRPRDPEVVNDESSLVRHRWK

With `COC[C@]12C[C@H]1[C@@](C)(c1cc(NC(=O)c3cnc(OCCF)cn3)cc(F)c1F)N=C(N)S2` [Example 1064, N-(3-((1S,5S,6S)-3-amino-1-(methoxymethyl)-5-methyl-2-thia-4-azabicyclo[4.1.0]hept-3-en-5-yl)-4,5-difluorophenyl)-5-(2-fluoroethoxy)-2-pyrazinecarboxamide], the IC50 in test [1] was 0.0027 µM; in test [2] it was 0.081 µM; in test [3], 0.0047 µM; in test [4], above 400 µM.
The like results for `COC[C@]12C[C@H]1[C@@](C)(c1cc(NC(=O)c3cnc(OCC(F)(F)F)cn3)cc(C)c1F)N=C(N)S2` [Example 1065, N-(3-((1S,5S,6S)-3-amino-1-(methoxymethyl)-5-methyl-2-thia-4-azabicyclo[4.1.0]hept-3-en-5-yl)-4-fluoro-5-methylphenyl)-5-(2,2,2-trifluoroethoxy)-2-pyrazinecarboxamide] were, in that order, 0.000256 µM, 0.0636 µM, 0.00294 µM and 1580 µM.
Taken in the same sequence, the figures for `COC[C@]12C[C@H]1[C@@](C)(c1cc(NC(=O)c3ccc(Cl)cn3)cc(C)c1F)N=C(N)S2` [Example 1066, N-(3-((1S,5S,6S)-3-amino-1-(methoxymethyl)-5-methyl-2-thia-4-azabicyclo[4.1.0]hept-3-en-5-yl)-4-fluoro-5-methylphenyl)-5-chloro-2-pyridinecarboxamide] were 0.00161 µM, 0.00099 µM, 0.00347 µM and above 400 µM.
For `COC[C@]12C[C@H]1[C@@](C)(c1cc(NC(=O)c3cnc(OC4COC4)cn3)ccc1F)N=C(N)S2` [Example 1067, N-(3-((1S,5S,6S)-3-amino-1-(methoxymethyl)-5-methyl-2-thia-4-azabicyclo[4.1.0]hept-3-en-5-yl)-4-fluorophenyl)-5-(oxetan-3-yloxy)pyrazine-2-carboxamide], the IC50 was 0.0264 µM in test [1], 1.63 µM in test [2], 0.0238 µM in test [3] and 2050 µM in test [4].
Regarding `COC[C@]12C[C@H]1[C@@](C)(c1cc(NC(=O)c3cnc(OCC(C)(C)C)cn3)cc(F)c1F)N=C(N)S2` [Example 1069, N-(3-((1S,5S,6S)-3-amino-1-(methoxymethyl)-5-methyl-2-thia-4-azabicyclo[4.1.0]hept-3-en-5-yl)-4,5-difluorophenyl)-5-(neopentyloxy)pyrazine-2-carboxamide], the IC50 in test [1] worked out at 0.0174 µM; in test [2] it was 0.878 µM; in test [3] it was 0.214 µM; in test [4] it was 1060 µM.
The like results for `COC[C@]12C[C@H]1[C@@](C)(c1cc(NC(=O)c3cnc(OCc4ncco4)cn3)cc(C)c1F)N=C(N)S2` [Example 1071, N-(3-((1S,5S,6S)-3-amino-1-(methoxymethyl)-5-methyl-2-thia-4-azabicyclo[4.1.0]hept-3-en-5-yl)-4-fluoro-5-methylphenyl)-5-(oxazol-2-ylmethoxy)pyrazine-2-carboxamide] were, in that order, 0.000768 µM, 0.0304 µM, 0.00025 µM and 1430 µM.
Taken in the same sequence, the figures for `C#CCOc1cnc(C(=O)Nc2cc(C)c(F)c([C@@]3(C)N=C(N)S[C@@]4(C(F)F)C[C@@H]34)c2)cn1` [Example 1072, N-(3-((1S,5S,6S)-3-amino-1-(difluoromethyl)-5-methyl-2-thia-4-azabicyclo[4.1.0]hept-3-en-5-yl)-4-fluoro-5-methylphenyl)-5-(prop-2-yn-1-yloxy)pyrazine-2-carboxamide] were 0.00032 µM, 0.00983 µM, 0.000345 µM and 143 µM.
